How the values were obtained:
[1] = system: cows; experiment: Abomasal infusion of glycerol in early lactation cows, milk component concentrations (Example 4); type: in vivo, cow; conditions: for Fat / Lactose / Total Solids / True Protein: 150 g/cow/day abomasal, average of 3 cows, early lactation
Procedure: To determine the weight percent total solids, wet basis, in a sample, the actual weight of total solids is determined by analyzing the sample in accordance with Method #925.23 (33.2.09) of Official Methods of Analysis, Association of Official Analytical Chemists (AOAC) (16th Ed., 1995). The weight percent total solids, wet basis, is then calculated by dividing the actual weight of total solids by the actual weight of the sample. The weight percent of true protein, wet basis, for a particular sample is calculated after first determining the wet basis weight percent of total Kjeldahl nitrogen and the wet basis weight percent of non-protein nitrogen in the sample. The wet basis weight percent of total Kjeldahl nitrogen in the sample is determined using the method referenced above. The wet basis weight percent of non-protein nitrogen (NPN) in the sample is determined in accordance with Method #991.21 (33.2.12) of Official Methods of Analysis, Association of Official Analytical Chemists (AOAC) (16th Ed., 1995). The weight percent of true protein, wet basis, in the sample is then determined by subtracting the wet basis weight percent of non-protein nitrogen in the sample from the wet basis weight percent of total Kjeldahl nitrogen in the sample. To determine the weight percent lactose, wet basis, in a liquid sample, the weight of the liquid sample is first determined. The actual weight of lactose in the liquid sample may then be determined using analysis kit number 176-303, that is available from Boehringer-Mannheim of Indianapolis, Ind. in accordance with the procedural instructions included with analysis kit number 176-303. The weight percent lactose, wet basis, in the liquid sample is then calculated by dividing the actual weight of lactose in the liquid sample by the actual weight of the liquid sample. To determine the weight percent fat, wet basis, in a sample, the actual weight of fat in the sample is determined in accordance with Method #974.09 (33.7.18) of Official Methods of Analysis, Association of Official Analytical Chemists (AOAC) (16th Ed., 1995). The weight percent fat, wet basis, is then calculated by dividing the actual weight of fat in the sample by the actual weight of the sample. In this example, glycerol was abomasally infused into three different cows at a rate of 150 grams per cow per day during a 14 day test period. The rations provided to the cows during the period extending from day 0, prior to abomasal infusion of glycerol, through day 14 of the test period were the same. The only difference in feeding of the cows between day 0 and days 1-14 of the test period were that during days 1-14 the cows were abomasally infused with the dosage of 150 grams of glycerol per cow per day. The glycerol was not combined with any other materials prior to being abomasally infused into the cattle. Milk from the three cows was collected and analyzed prior to infusion (on day 0) and also was collected and analyzed on the third, seventh and fourteenth day of the test period. The results presented in Table 4 below for each milk component for each particular day are averages for the milk collected from the three different cows. The net change for the different milk components presented in Table 4 was calculated by averaging the results of days 3, 7 and 14 for a particular milk component and subtracting the results presented for day 0 for the particular milk component. […] This increase in true protein concentration is particularly significant considering that the test cattle were in the early lactation phase (less than 90 days into milk production) when abomasally infused with glycerol. Typically, when being fed ordinary rations, the concentration of true protein in milk produced by lactating cattle decreases as the early lactation phase progresses.

[2] = system: cows; experiment: Cyclic oral feeding of glycerol to cows, milk component concentrations (Example 8); type: in vivo, cow; conditions: for Fat in Milk / Lactose in Milk / Total Solids in Milk / True Protein in Milk: oral
Procedure: To determine the weight percent total solids, wet basis, in a sample, the actual weight of total solids is determined by analyzing the sample in accordance with Method #925.23 (33.2.09) of Official Methods of Analysis, Association of Official Analytical Chemists (AOAC) (16th Ed., 1995). The weight percent total solids, wet basis, is then calculated by dividing the actual weight of total solids by the actual weight of the sample. The weight percent of true protein, wet basis, for a particular sample is calculated after first determining the wet basis weight percent of total Kjeldahl nitrogen and the wet basis weight percent of non-protein nitrogen in the sample. The wet basis weight percent of total Kjeldahl nitrogen in the sample is determined using the method referenced above. The wet basis weight percent of non-protein nitrogen (NPN) in the sample is determined in accordance with Method #991.21 (33.2.12) of Official Methods of Analysis, Association of Official Analytical Chemists (AOAC) (16th Ed., 1995). The weight percent of true protein, wet basis, in the sample is then determined by subtracting the wet basis weight percent of non-protein nitrogen in the sample from the wet basis weight percent of total Kjeldahl nitrogen in the sample. To determine the weight percent lactose, wet basis, in a liquid sample, the weight of the liquid sample is first determined. The actual weight of lactose in the liquid sample may then be determined using analysis kit number 176-303, that is available from Boehringer-Mannheim of Indianapolis, Ind. in accordance with the procedural instructions included with analysis kit number 176-303. The weight percent lactose, wet basis, in the liquid sample is then calculated by dividing the actual weight of lactose in the liquid sample by the actual weight of the liquid sample. To determine the weight percent fat, wet basis, in a sample, the actual weight of fat in the sample is determined in accordance with Method #974.09 (33.7.18) of Official Methods of Analysis, Association of Official Analytical Chemists (AOAC) (16th Ed., 1995). The weight percent fat, wet basis, is then calculated by dividing the actual weight of fat in the sample by the actual weight of the sample. In Example 8, glycerol was periodically fed orally to several test cows. Period 1 lasted from week 1-3, Period 2 lasted from week 4-6, and Period 3 lasted from week 7-9, with week 0 being the start of the test period in which no glycerol was provided. The results presented in Table 7 below are averages for particular components for milk produced from each of the test animals.

[3] = abomasal infusion, early lactation phase
[4] = milk, average of days 3, 7, 14 minus day 0
[5] = Period 1 (Fed Glycerol), weeks 1-3
[6] = Period 3 (Fed Glycerol), weeks 7-9

OCC(O)CO [glycerol]
weight percent of fat in the milk (conclusion in words) [1, 3]: substantially stabilized
weight percent of total solids in the milk (conclusion in words) [1, 3]: substantially stabilized
weight percent of true protein in the milk (conclusion in words) [1, 3]: net increase
Fat ([1]; milk, Day 3): 3.80 Wt %
Lactose ([1]; milk, Day 3): 4.78 Wt. %
Total Solids ([1]; milk, Day 3): 12.67 Wt. %
True Protein ([1]; milk, Day 3): 3.33 Wt. %
Fat ([1]; milk, Day 7): 3.53 Wt %
Lactose ([1]; milk, Day 7): 4.41 Wt. %
Total Solids ([1]; milk, Day 7): 12.04 Wt. %
True Protein ([1]; milk, Day 7): 3.32 Wt. %
Fat ([1]; milk, Day 14): 3.68 Wt %
Lactose ([1]; milk, Day 14): 4.51 Wt. %
Total Solids ([1]; milk, Day 14): 12.34 Wt. %
True Protein ([1]; milk, Day 14): 3.38 Wt. %
Fat, Net Change [1, 4]: −0.11 Wt %
Lactose, Net Change [1, 4]: −0.07 Wt. %
Total Solids, Net Change [1, 4]: −0.05 Wt. %
True Protein, Net Change [1, 4]: +0.11 Wt. %
decrease in the weight percent of lactose ([1]; milk, net change over test period): 0.07%
fat, lactose, or total solids content of the milk (conclusion in words) ([2]; cyclic oral feeding): no increase or essentially no increase
Fat in Milk [2, 5]: 3.06 wt %
Lactose in Milk [2, 5]: 4.97 wt %
Total Solids in Milk [2, 5]: 11.38 wt %
True Protein in Milk [2, 5]: 2.64 wt %
Fat in Milk [2, 6]: 3.22 wt %
Lactose in Milk [2, 6]: 4.80 wt %
Total Solids in Milk [2, 6]: 11.43 wt %
True Protein in Milk [2, 6]: 2.69 wt %
